Results from patent US10449247B2, “Compositions and methods for enhancing immune response” (priority 2007, dated 2019).

What was measured:
Assay type in all cases: cell-based, Human
[1] = test system: THP-1 cells; test: Vybrant phagocytosis assay (fluorescein-labeled E. coli particles), THP-1 cells
Procedure: Human THP-1 monocytoid cells (acute monocytic leukemia) were obtained from American Type Tissue Collection (#TIB-202). Cells were cultured in RPMI-1640 medium supplemented with 2 mM L-glutamine, 10 mM HEPES, 1.0 mM sodium pyruvate, 10% fetal bovine serum and antibiotics. Primary peripheral blood monocytes (PBM) were isolated from mixed peripheral blood mononuclear cell preparations using the Miltenyi Biotec MACs magnetic separation system. PBM were cultured in the same medium as THP-1 cells, with the exception that 20% fetal bovine serum was used. Cells were seeded (1×10^5 cells/well, 96-well culture plates) 24 h prior to treatment with OxBC, PMA (25 ng/ml) and/or LPS (15 ng/ml) as described below. Cells incubated in an equivalent percentage (v/v) of DMSO alone served as controls.
Phagocytosis in monocyte cultures was evaluated using a Vybrant phagocytosis assay kit (Invitrogen, #V6694) based upon the ingestion of fluorescein-labeled E. coli (strain K12) bacterial particles. Briefly, treated cells were incubated at 37° C. for 5 h with a 1000 suspension of fluorescent bioparticles in Hank's buffered salt solution. […] The trypan blue solution was removed and the number of ingested particles determined using a fluorescence microplate reader (480 nm excitation, 520 nm emission). […] After recovery, the cells were treated with LPS for an 24 h before phagocytosis was measured.

[2] = test system: THP-1 cells; test: FACS analysis of surface receptor expression in THP-1 cells (no LPS)
Procedure: Human THP-1 monocytoid cells (acute monocytic leukemia) were obtained from American Type Tissue Collection (#TIB-202). Cells were cultured in RPMI-1640 medium supplemented with 2 mM L-glutamine, 10 mM HEPES, 1.0 mM sodium pyruvate, 10% fetal bovine serum and antibiotics. Cells were seeded (5×10^5 cells/well, 6-well culture plates) 24 h prior to treatment with OxBC and harvested for analysis according to three protocols: 1) Cells were treated with OxBC (2.5, 7.5 or 12.5 μM) for 24 h and than evaluated for surface receptor expression; 2) Cells were treated with OxBC (0.1, 0.5 or 1.0 μM) for 24 h, at which point fresh media lacking OxBC was supplied for 48 h prior to analysis, and 3) Cells were treated with OxBC (0.1, 0.5 or 1.0 μM) for 24 h, at which point fresh media lacking OxBC was supplied for 5 days. Treated cells were then stimulated with LPS (15 ng/ml) for 24 h prior to analysis. Cells incubated in an equivalent percentage (v/v) of DMSO alone served as controls. For studies in which LPS stimulation was not employed, PMA 25 ng/ml) was used as positive stimulator of monocytes differentiation.
Phycoerythrin (PE)-labeled primary antibodies against human CD11b, CD14, CD16, CD36, CD51/CD61, HLA (broad isoforms), HLA-B7, CD86, CD40, CD40L and CD3 were obtained from AbCam. Receptor expression was evaluated using direct immunofluorescence labeling and flow cytometry analysis. Briefly, triplicate cell aliquots in cold buffer (PBS containing 10% FBS and 1% sodium azide) were incubated with primary antibody (10-20 μl) for 45 min at room temperature under low light conditions. Cells were washed three times and resuspended in 500 μl of buffer for analysis using a FacsAria cell sorter. Unlabeled cells and cells labeled with antibody alone served as controls.

[3] = test system: THP-1 cells; test: Cytokine release ELISA, naive THP-1 cells treated directly
Procedure: Human THP-1 monocytoid cells (acute monocytic leukemia) were obtained from American Type Tissue Collection (#TIB-202). Cells were cultured in RPMI-1640 medium supplemented with 2 mM L-glutamine, 10 mM HEPES, 1.0 mM sodium pyruvate, 10% fetal bovine serum and antibiotics. Peripheral blood monocytes (PBM) and lymphocytes (PBL) were isolated from PBMC by positive and negative selection, respectively, using the Miltenyi Biotec MACs magnetic separation system. PBM were cultured in RPMI-1640 medium supplemented with 2 mM L-glutamine, 10 mM HEPES, 1.0 mM sodium pyruvate, 20% fetal bovine serum and antibiotics. PBL were seeded in the same medium with the exception that 10% FBS was used. Specific cell densities and experimental conditions are described below.
Cells were evaluated in both naïve challenge and LPS challenge models. For naive studies, cells were exposed directly to OxBC for varying time frames and cytokine expression evaluated in conditioned medium (CM) by ELISA. For LPS challenge, cells were first incubated with OxBC for the indicated time, at which point OxBC was removed and replaced with fresh medium lacking the compound. At different time points post-treatment, cells were then challenged with LPS (15 ng/ml) for 24 h prior to cytokine levels in CM being evaluated by ELISA. In a variation of the LPS challenge scenario, primary PBM were first challenged with LPS for 24 h. After this initial stimulation, LPS-treated cells were then exposed to OxBC for 24 h before CM was harvested for ELISA analysis.
Analysis of cytokine levels in CM was performed using Endogen Human ELISA kits (Pierce) according to manufacturer's instructions. CM was prepared by centrifugation to remove cellular debris and either used neat, diluted with complete medium or concentrated using Nanosep 3K centrifugal concentrators (Pall) to ensure that cytokine levels fell within the linear ranges of each assay. Where appropriate, samples were stored at −80° C. and thawed by gradual equilibration at room temperature prior to use. Briefly, 50 μl samples were added to each well of a microplate to which antibody specific to the cytokine of interest had been adsorbed and incubated at room temperature for 1-3 h. Plates were washed three times to remove nonspecifically bound material and incubated for an additional 1-3 h with biotinylated antibody specific to the cytokine of interest. After washing, plates were incubated for 30 min with steptavidin-horse radish peroxidase reagent followed by an additional washing cycle. Washed plates were incubated for 30 min with 3,3′,5,5′-tetramethylbenzidine (TMB) substrate, the reaction stopped and absorbance measured at 450 nm (550 nm reference). Reference curves were generated for each cytokine using the supplied recombinant standard.
A primary proof-of-principle study was conducted in THP-1 cells that were untreated (mock) or treated for 24 h with OxBC, PMA (25 ng/ml) and vehicle (DMSO). […] Moreover, no change in MCP-1 and IL-8 expression was detected at lower concentrations of the compound. Both MCP-1 and IL-8 function as cytokines to recruit immune cells to sites of infection or injury. For example, IL-8 primarily recruits neutrophils within an inflammatory response and is also termed neutrophils recruitment factor (NRF), while MCP-1 primarily functions to recruit other monocytes. Expression of either cytokine by monocytes/macrophages is induced in response to detection of antigen or phagocytosis of an invading pathogen.

[4] = THP-1, 24 h, PMA 25 ng/ml, proof-of-principle

## CCCCCCCCCCCCCC(=O)O[C@@H]1[C@@H](C)[C@@]2(O)[C@@H](C=C(CO)C[C@]3(O)C(=O)C(C)=C[C@@H]23)[C@@H]2C(C)(C)[C@]12OC(C)=O [PMA, Phorbol myristate acetate]
[1]; THP-1, PMA 24 h, 72 h recovery
  phagocytic activity: large increase in phagocytic activity
[1]; naive THP-1, PMA 25 ng/ml 24 h
  increase in phagocytic activity relative to control cultures: 12.94±2.05 fold
[2]; THP-1, 24 h, PMA 25 ng/ml
  CD11b expression, fold change relative to vehicle controls: 0.97 ± 0.02 fold
  CD14 expression, fold change relative to vehicle controls: 1.91 ± 0.06 fold
  CD16 expression, fold change relative to vehicle controls: 4.77 ± 0.31 fold
  CD36 expression, fold change relative to vehicle controls: 1.03 ± 0.01 fold
  CD51 expression, fold change relative to vehicle controls: 5.07 ± 0.29 fold
[2]; THP-1, PMA 25 ng/ml
  B7-2 (CD86) expression, fold change relative to vehicle controls: 2.04 ± 0.29 fold
  CD11b receptor density (fluorescence intensity), fold change relative to vehicle controls: 1.97 ± 0.01 fold
  CD36 receptor density (fluorescence intensity), fold change relative to vehicle controls: 4.57 ± 0.03 fold
  CD40L expression, fold change relative to vehicle controls: 1.4 ± 0.10 fold
  CD40 counts, fold change relative to vehicle controls: 0.98 ± 0.01 fold
  CD40 intensity, fold change relative to vehicle controls: 1.31 ± 0.1 fold
  HLA (DQ/DR/DP) expression, fold change relative to vehicle controls: 1.05 ± 0.01 fold
  increase of densities of CD11b and CD36: 2 to 4 fold
[3]; [4]
  IFNγ: 10.0 ± 1.3 pg/mL
  IL-1β: 73.4 ± 2.8 pg/mL
  IL-8: 637.2 ± 18.6 pg/mL
  IL-12: 8.0 ± 6.5 pg/mL
  MCP-1: 654.9 ± 60.2 pg/mL
  TNF: 110.1 ± 1.7 pg/mL
[3]; THP-1, PMA 25 ng/ml, Table 3
  IFNγ: 24.9 pg/mL
  IL-1β: 62.5 pg/mL
  IL-6: 20.3 pg/mL
  IL-8: 712.4 pg/mL
  IL-12: 20.9 pg/mL
  MCP-1: 574.8 pg/mL
  TNF: 108.5 pg/mL
